Results taken from PubChem BioAssay AID2060495 (Molecular Pharmacology Branch, DTP, NCI, 2025).

Tested on: 521955-158-R2-J5-PDC complex spheroid viability
Experiment: Anticancer human tumor 521955-158-R2-J5-PDC patient-derived pancreatic carcinoma cell line growth inhibition [GQUAD]
Settings: for IC50: curve of first compound; for viability, T/C: stronger effect = lower value
Source text: DNA G-quadruplex Stabilizer Agents in Combinations in Complex Spheroids
A high-throughput screen of multi-cell type tumor spheroids was designed to identify active combinations of DNA G-quadruplex stabilizer agents and targeted small molecules. Complex spheroids include a stromal component modeled by human endothelial cells (HUVEC) and fibroblasts modeled by human mesenchymal stem cells (MSCs). The concentration ranges selected for each drug and investigational agent were based upon clinically achievable concentrations if the clinical Cmax of the agent was known.
Compounds. The drugs and investigational agents: pidnarulex (CX-5461; NSC782164), APTO-253 (NSC789042), BRACO-19 (NSC847499), peposertib (NSC802822), ceralasertib (NSC780249), elimusertib (NSC800525), camonsertib (NSC841442), AZD-1390 (NSC803789), olaparib (NSC753686), talazoparib (NSC767125), ART-558 (NSC835418), sotorasib (NSC818433), MRTX-1133 (NSC836407), SN-38 (NSC673596), topotecan (NSC609699), etoposide (NSC141540), doxorubicin (NSC123127), gemcitabine (NSC613327), 5-fluorouracil (NSC19893), paclitaxel (NSC125973), vemurafenib (NSC761431), panobinostat (NSC761190), R-306465 (JNJ-16241199; NSC773264), adavosertib (NSC754352), TP-3654 (NSC805149), carboplatin (NSC241240), KSQ-4279 (NSC840948), and staurosporine (NSC755774) were obtained from the National Cancer Institute (NCI) Developmental Therapeutics Program Chemical Repository (34). The FDA-approved anticancer drug set is available from the NCI Developmental Therapeutics Program. […] The stock solutions were prepared in dimethyl sulfoxide (DMSO, Sigma-Aldrich, St. Louis, MO, cat. D2650) at 800-fold the tested concentration and stored at -70 degrees C prior to their use. All drugs and investigational agents were tested over a range starting from a high concentration at or near the clinical Cmax and decreasing in half-log increments. If the clinical Cmax for an agent had not been determined, the highest concentration tested was 10 microM.
2.3 Cell Culture. All cells were maintained in an incubator at 37 degrees C and 5% CO2 with 95% humidity. The PDC lines were cultured according to standard operating procedures established by the NCI PDMR. All PDCs were thawed and cultured in Matrigel-coated flasks prepared with a working solution of 1X Ham's F-12 nutrient mix, without supplementation (Invitrogen, cat. 11765054), 100 U/mL penicillin-streptomycin (Invitrogen, cat. 15140122), and 2.5% Matrigel (Corning Inc., cat. 354248) for the first three passages. The 857933-349-R-J2-PDC line was cultured in 6C/Colon 1B media, which includes advanced DMEM/F-12 (Thermo Fisher Scientific, cat. 12634028), 10 mM HEPES (Thermo Fisher Scientific, cat. 15630080), 1X GlutaMAX supplement (Thermo Fisher Scientific, cat. 35050061), 0.1 mg/mL primocin (InvivoGen, cat. ant-pm-2), 10% defined fetal bovine serum, heat inactivated (HyClone Laboratories Inc., cat. SH30070.03HI), 50% L-WRN conditioned media (ATCC, cat. CRL-3276), 1.25 mM N-Acetyl-L-cysteine (Sigma-Aldrich, cat. A9165), 10 mM nicotinamide (Sigma-Aldrich, cat. N0636), 1X B-27 supplement (Thermo Fisher Scientific, cat. 17504044), 1X N-2 supplement (Thermo Fisher Scientific, cat. 17502048), 10 microM Y-27632 dihydrochloride (Tocris Bioscience, cat. 1254), and 50 ng/mL human EGF recombinant protein (Thermo Fisher Scientific, cat. PHG0311). The 485176-168-R4-J1-PDC line was cultured in Panc media, which includes all 6C/Colon 1B media components plus 100 ng/mL human FGF-10 (Thermo Fisher Scientific, cat. 100-26), 500 nM SB-431542 (Selleckchem, cat. S1067), and gastrin (Tocris, cat. 3006).
[…]

[1] = second compound 0.0316 µM, first compound 0.0316 µM
[2] = second compound 0.0316 µM, first compound 0.1 µM
[3] = second compound 0.0316 µM, first compound 0.316 µM
[4] = second compound 0.0316 µM, first compound 1 µM
[5] = second compound 0.0316 µM, first compound 3.16 µM
[6] = second compound 0.0316 µM, first compound 10 µM
[7] = second compound 0.1 µM, first compound 0.0316 µM
[8] = second compound 0.1 µM, first compound 0.1 µM
[9] = second compound 0.1 µM, first compound 0.316 µM
[10] = second compound 0.1 µM, first compound 1 µM
[11] = second compound 0.1 µM, first compound 3.16 µM
[12] = second compound 0.1 µM, first compound 10 µM
[13] = second compound 0.316 µM, first compound 0.0316 µM
[14] = second compound 0.316 µM, first compound 0.1 µM
[15] = second compound 0.316 µM, first compound 0.316 µM
[16] = second compound 0.316 µM, first compound 1 µM
[17] = second compound 0.316 µM, first compound 3.16 µM
[18] = second compound 0.316 µM, first compound 10 µM
[19] = second compound 1 µM, first compound 0.0316 µM
[20] = second compound 1 µM, first compound 0.1 µM
[21] = second compound 1 µM, first compound 0.316 µM
[22] = second compound 1 µM, first compound 1 µM
[23] = second compound 1 µM, first compound 3.16 µM
[24] = second compound 1 µM, first compound 10 µM
[25] = second compound 3.16 µM, first compound 0.0316 µM
[26] = second compound 3.16 µM, first compound 0.1 µM
[27] = second compound 3.16 µM, first compound 0.316 µM
[28] = second compound 3.16 µM, first compound 1 µM
[29] = second compound 3.16 µM, first compound 3.16 µM
[30] = second compound 3.16 µM, first compound 10 µM
[31] = second compound 10 µM, first compound 0.0316 µM
[32] = second compound 10 µM, first compound 0.1 µM
[33] = second compound 10 µM, first compound 0.316 µM
[34] = second compound 10 µM, first compound 1 µM
[35] = second compound 10 µM, first compound 3.16 µM
[36] = second compound 10 µM, first compound 10 µM
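Further: spheroids exposed to agents for one week before reading.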
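Wherever viability, T/C is given: 100% = DMSO vehicle control viability.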

CC(C)n1c(=O)n(C)c2cnc3cc(F)c(-c4ccc(OCCCN5CCCCC5)nc4)cc3c21 + CN(C)c1ccc(Nc2c3ccc(NC(=O)CCN4CCCC4)cc3nc3cc(NC(=O)CCN4CCCC4)ccc23)cc1
IC50 (second compound 0.0316 µM): > 10 µM | IC50 (second compound 0.1 µM): > 10 µM | IC50 (second compound 0.316 µM): > 10 µM | IC50 (second compound 1 µM): > 10 µM | IC50 (second compound 3.16 µM): 8.35 µM | IC50 (second compound 10 µM): 0.288 µM | viability, T/C [1]: 117% | viability, T/C [2]: 108% | viability, T/C [3]: 110% | viability, T/C [4]: 93.5% | viability, T/C [5]: 115% | viability, T/C [6]: 109% | viability, T/C [7]: 98.6% | viability, T/C [8]: 105% | viability, T/C [9]: 101% | viability, T/C [10]: 95.3% | viability, T/C [11]: 116% | viability, T/C [12]: 106% | viability, T/C [13]: 101% | viability, T/C [14]: 103% | viability, T/C [15]: 91% | viability, T/C [16]: 107% | viability, T/C [17]: 115% | viability, T/C [18]: 85.2% | viability, T/C [19]: 112% | viability, T/C [20]: 90.2% | viability, T/C [21]: 77% | viability, T/C [22]: 96.8% | viability, T/C [23]: 97.5% | viability, T/C [24]: 86% | viability, T/C [25]: 101% | viability, T/C [26]: 81% | viability, T/C [27]: 63.6% | viability, T/C [28]: 63.7% | viability, T/C [29]: 55.1% | viability, T/C [30]: 46.7% | viability, T/C [31]: 64% | viability, T/C [32]: 57% | viability, T/C [33]: 51.2% | viability, T/C [34]: 34.8% | viability, T/C [35]: 22% | viability, T/C [36]: 5.89%

Cc1cccc(N(C)C(=O)C2C(O)CCN2c2nc(C)cc(C(F)(F)F)c2C#N)c1 (centres undefined) + CN(C)c1ccc(Nc2c3ccc(NC(=O)CCN4CCCC4)cc3nc3cc(NC(=O)CCN4CCCC4)ccc23)cc1
IC50 (second compound 0.0316 µM): > 10 µM | IC50 (second compound 0.1 µM): > 10 µM | IC50 (second compound 0.316 µM): > 10 µM | IC50 (second compound 1 µM): > 10 µM | IC50 (second compound 3.16 µM): > 10 µM | IC50 (second compound 10 µM): 2.59 µM | viability, T/C [1]: 110% | viability, T/C [2]: 102% | viability, T/C [3]: 99.6% | viability, T/C [4]: 107% | viability, T/C [5]: 103% | viability, T/C [6]: 116% | viability, T/C [7]: 102% | viability, T/C [8]: 91.4% | viability, T/C [9]: 99.3% | viability, T/C [10]: 96.3% | viability, T/C [11]: 125% | viability, T/C [12]: 109% | viability, T/C [13]: 104% | viability, T/C [14]: 95.2% | viability, T/C [15]: 103% | viability, T/C [16]: 118% | viability, T/C [17]: 130% | viability, T/C [18]: 99.9% | viability, T/C [19]: 84.6% | viability, T/C [20]: 99.7% | viability, T/C [21]: 96.3% | viability, T/C [22]: 86% | viability, T/C [23]: 94.4% | viability, T/C [24]: 84.2% | viability, T/C [25]: 85.8% | viability, T/C [26]: 72.1% | viability, T/C [27]: 77.4% | viability, T/C [28]: 78% | viability, T/C [29]: 93.4% | viability, T/C [30]: 54.1% | viability, T/C [31]: 67.2% | viability, T/C [32]: 54.3% | viability, T/C [33]: 58% | viability, T/C [34]: 58.4% | viability, T/C [35]: 48.5% | viability, T/C [36]: 18.8%
